Data set [1] in a line: Compound was tested for the pseudo first-order rate constants for the inhibition of the cleavage step (k2) of the hammerhead ribozyme at a concentration of 10 uM.
Data set [2] in a line: Compound was tested for the pseudo first-order rate constants for the inhibition of the cleavage step (k2) of the hammerhead ribozyme at a concentration of 1 uM.
Data set [3] can be described thus: Compound was tested for the pseudo first-order rate constants for the inhibition of the cleavage step (k2) of the hammerhead ribozyme at a concentration of 100 uM; not determined at this concentration.
A short description of data set [4]: Compound was tested for the pseudo first-order rate constants for the inhibition of the cleavage step (k2) of the hammerhead ribozyme at a concentration of 100 uM; too active and complete inhibition is observed.
Data set [5] is described as follows: Compound was tested for the pseudo first-order rate constants for the inhibition of the cleavage step (k2) of the hammerhead ribozyme at a concentration of 100 uM.
Data set [6] can be described thus: Compound was tested for the pseudo first-order rate constants for the inhibition of the cleavage step (k2) of the hammerhead ribozyme at a concentration of 100 uM; too active and complete inhibition is observed. The source holds these as a separate data set.
The nature of data set [7]: Compound was tested for the pseudo first-order rate constants for the inhibition of the cleavage step (k2) of the hammerhead ribozyme at a concentration of 1 uM; not determined at this concentration.

As for `NCC1O[C@H](O[C@H]2[C@@H](O)[C@H](O[C@H]3[C@H](O)[C@@H](N)C[C@@H](N)[C@@H]3O[C@H]3O[C@H](CN)[C@@H](O)[C@H](O)[C@H]3N)O[C@@H]2CSCCOCCSSCCOCCSC[C@H]2O[C@H](O[C@@H]3[C@@H](O)[C@H](O[C@H]4O[C@H](CN)[C@@H](O)C[C@H]4N)[C@@H](N)C[C@H]3N)[C@H](O)[C@@H](N)[C@@H]2O)[C@H](N)[C@@H](O)[C@@H]1O` (stereo partly specified), the K2 in data set [1] was 0.008 min⁻¹; in data set [2], 0.046 min⁻¹.

As to `NCC1O[C@H](O[C@H]2[C@@H](O)[C@H](O[C@H]3[C@H](O)[C@@H](N)C[C@@H](N)[C@@H]3O[C@H]3O[C@H](CN)[C@@H](O)[C@H](O)[C@H]3N)O[C@@H]2CSCCOCCSSCCOCCSC[C@H]2O[C@@H](O[C@H]3[C@H](O)[C@@H](N)C[C@@H](N)[C@@H]3O[C@H]3O[C@H](CN)[C@@H](O)[C@H](O)[C@H]3N)[C@H](O)[C@@H]2O[C@@H]2OC(CN)[C@H](O)[C@@H](O)[C@@H]2N)[C@H](N)[C@@H](O)[C@@H]1O` (stereo partly specified), the figures for the K2 in data set [1], in data set [2] and in data set [3] were 0.003 min⁻¹, 0.041 min⁻¹ and “No inhibition”, respectively.

For the compound `NC[C@H]1O[C@H](O[C@H]2[C@H](O)[C@@H](O[C@H]3O[C@H](CSCCOCCSSCCOCCSC[C@H]4O[C@H](O[C@@H]5[C@@H](O)[C@H](O[C@H]6O[C@H](CN)[C@@H](O)C[C@H]6N)[C@@H](N)C[C@H]5N)[C@H](O)[C@@H](N)[C@@H]4O)[C@@H](O)[C@H](N)[C@H]3O)[C@H](N)C[C@@H]2N)[C@H](O)[C@@H](O)[C@@H]1O`, the K2 in data set [1] was 0.014 min⁻¹; in data set [4], “Too active and complete inhibition is observed”.

For the compound `NC[C@H]1O[C@H](O[C@H]2[C@H](O)[C@@H](O[C@H]3O[C@H](CSCCOCCSSCCOCCSC[C@H]4O[C@H](O[C@@H]5[C@@H](O)[C@H](O[C@H]6O[C@H](CN)[C@@H](O)[C@H](O)[C@H]6O)[C@@H](N)C[C@H]5N)[C@H](O)[C@@H](N)[C@@H]4O)[C@@H](O)[C@H](N)[C@H]3O)[C@H](N)C[C@@H]2N)[C@H](O)[C@@H](O)[C@@H]1O`, the K2 in data set [1] is 0.017 min⁻¹; in data set [4], “Too active and complete inhibition is observed”.

Turning to `NC[C@H]1OC(O[C@H]2[C@H](O)[C@@H](OC3O[C@H](CO)[C@@H](O)[C@H](N)[C@H]3O)[C@H](N)C[C@@H]2N)[C@H](N)C[C@@H]1O` (single isomer, unassigned) [TOBRAMYCIN], the K2 in data set [5] is 0.012 min⁻¹; in data set [1] it was 0.051 min⁻¹; in data set [4] it was “Too active and complete inhibition is observed”.

`NC[C@@H]1O[C@H](O[C@H]2[C@@H](O)[C@H](O[C@@H]3[C@@H](O)[C@H](N)C[C@H](N)[C@H]3O[C@H]3O[C@H](CN)[C@@H](O)[C@H](O)[C@H]3N)O[C@@H]2CO)[C@H](N)[C@@H](O)[C@@H]1O` [FRAMYCETIN]: the K2 in data set [1] is 0.018 min⁻¹; in data set [2] it was 0.062 min⁻¹; in data set [3], “No inhibition”.

For `NC[C@H]1O[C@H](O[C@H]2[C@H](O)[C@@H](O[C@H]3O[C@H](CO)[C@@H](O)[C@H](N)[C@H]3O)[C@H](N)C[C@@H]2N)[C@H](O)[C@@H](O)[C@@H]1O` [KANAMYCIN A], the K2 in data set [5] is 0.058 min⁻¹; in data set [4], “Too active and complete inhibition is observed”; in data set [6] it was “Too active and complete inhibition is observed”.

With `NC[C@H]1O[C@H](O[C@H]2[C@H](O)[C@@H](O[C@H]3O[C@H](CSCCOCCSSCCOCCSC[C@H]4O[C@H](O[C@@H]5[C@@H](O)[C@H](O[C@H]6O[C@H](CN)[C@@H](O)C[C@H]6N)[C@@H](N)C[C@H]5N)[C@H](O)[C@@H](N)[C@@H]4O)[C@@H](O)[C@H](N)[C@H]3O)[C@H](N)C[C@@H]2N)[C@H](N)C[C@@H]1O` [Tobramycin-Tobramycin], the K2 in data set [1] was 0.011 min⁻¹; in data set [7], “No inhibition”; in data set [4], “Too active and complete inhibition is observed”.
